Experimental data reported in US20130131156A1, “Cancer Treatment with Wortmannin Analogs” (ONCOTHYREON INC., priority 2010, published 2013).

Key:
[1] = Phase I trial of oral PX-866: safety, DLT and MTD; type: in vivo, human; conditions: for Maximal Tolerated Dose (MTD): oral
Method: (§1) This was an Open-label dose escalation study with expansion cohort at Maximal Tolerated Dose (MTD), 3+3 design and to test efficacy of 2 dosing schedules (intermittent and continuous). PX-866 was administered as an oral dose.
The primary and secondary objectives were tested using two different dosing regimens: 10 days of drug administration and daily administration for 28 days.
Intermittent schedule: 10 dose levels tested (0.5-16 mg). The starting dose level was 0.5 mg. Doses increased as follows: 100% escalation up to 2 mg, 50% escalation up to 4.5 mg, and approximately 30% escalation until the MTD is identified. The highest dose level at which no more than 1/6 patients experiences DLT was declared the MTD. The resulting dose levels were: 0.5, 1, 2, 3, 4.5, 6, 8, 10, 12 and 16 mg.
FIG. 1 illustrates the dosing schedule for intermittent dosing where PX-866 was given to patients on days 1-5 and 8-12 of a 28-day cycle.
Continuous dosing schedule: The starting dose was two dose levels below the MTD of intermittent dosing (8 mg) and subsequent dose levels was one or two dose levels (10 mg or 8 mg) below the MTD of intermittent dosing dependent on recommendation of the dose cohort review committee. FIG. 1 illustrates the dosing schedule for continuous dosing.

[2] = test system: advanced solid tumors; assay: Phase I trial of oral PX-866: tumor response by RECIST; type: in vivo, human; conditions: 1 to 7 prior treatments, median 4 prior systemic regimens
Method: as §1
Patient response was evaluated according to Response Evaluation Criteria in Solid Tumors (RECIST). Briefly, all measurable lesions up to a maximum of five lesions, representative of all involved organs were identified as target lesions and recorded and measured at baseline. Target lesions were selected on the basis of their size (lesions with the longest diameter) and their suitability for accurate repeated measurements (either by imaging techniques or clinically). A sum of the longest diameter (LD) for all target lesions was calculated and reported as the baseline sum LD. The baseline sum LD was used as reference by which to characterize the objective tumor. All other lesions (or sites of disease) were identified as non-target lesions and were also be recorded at baseline. Measurements of these lesions were not required, but the presence or absence of each was noted throughout follow-up.
A Complete Response (CR) indicated a disappearance of all target lesions.

[3] = Phase I trial of oral PX-866: clinical pharmacokinetics; type: in vivo, human
[4] = test system: PI-3K pathway; assay: Clinical pharmacodynamics: PBMCs stimulated ex vivo, FACS based assay (p-mTOR, p-S6); type: in vivo, human; conditions: PBMCs of treated patients stimulated ex vivo
Method: The pharmacodynamic effects of PX-866 in patients treated in the phase I single agent study were assessed using isolated peripheral blood mononuclear cells (PBMCs) stimulated ex vivo via FACS based assay. […] The study provided Evidence for pathway inhibition lasting up to 3 days post-treatment.

[5] = test system: p-AKT/T-AKT; assay: Clinical pharmacodynamics: p-AKT/T-AKT after a single oral dose; type: in vivo, human; conditions: 3 of 4 patients, 8 mg dose level, 4 hours after a single oral dose
[6] = target: PIK3CA (p110α) (Homo sapiens, UniProt P42336); assay: PI-3K isoform inhibition, p110α (PIK3CA); the text calls it cell based; conditions: cell proliferation assays versus p110α and p110β isoforms
PIK3CA (p110α), sequence (P42336 whole entry, canonical isoform): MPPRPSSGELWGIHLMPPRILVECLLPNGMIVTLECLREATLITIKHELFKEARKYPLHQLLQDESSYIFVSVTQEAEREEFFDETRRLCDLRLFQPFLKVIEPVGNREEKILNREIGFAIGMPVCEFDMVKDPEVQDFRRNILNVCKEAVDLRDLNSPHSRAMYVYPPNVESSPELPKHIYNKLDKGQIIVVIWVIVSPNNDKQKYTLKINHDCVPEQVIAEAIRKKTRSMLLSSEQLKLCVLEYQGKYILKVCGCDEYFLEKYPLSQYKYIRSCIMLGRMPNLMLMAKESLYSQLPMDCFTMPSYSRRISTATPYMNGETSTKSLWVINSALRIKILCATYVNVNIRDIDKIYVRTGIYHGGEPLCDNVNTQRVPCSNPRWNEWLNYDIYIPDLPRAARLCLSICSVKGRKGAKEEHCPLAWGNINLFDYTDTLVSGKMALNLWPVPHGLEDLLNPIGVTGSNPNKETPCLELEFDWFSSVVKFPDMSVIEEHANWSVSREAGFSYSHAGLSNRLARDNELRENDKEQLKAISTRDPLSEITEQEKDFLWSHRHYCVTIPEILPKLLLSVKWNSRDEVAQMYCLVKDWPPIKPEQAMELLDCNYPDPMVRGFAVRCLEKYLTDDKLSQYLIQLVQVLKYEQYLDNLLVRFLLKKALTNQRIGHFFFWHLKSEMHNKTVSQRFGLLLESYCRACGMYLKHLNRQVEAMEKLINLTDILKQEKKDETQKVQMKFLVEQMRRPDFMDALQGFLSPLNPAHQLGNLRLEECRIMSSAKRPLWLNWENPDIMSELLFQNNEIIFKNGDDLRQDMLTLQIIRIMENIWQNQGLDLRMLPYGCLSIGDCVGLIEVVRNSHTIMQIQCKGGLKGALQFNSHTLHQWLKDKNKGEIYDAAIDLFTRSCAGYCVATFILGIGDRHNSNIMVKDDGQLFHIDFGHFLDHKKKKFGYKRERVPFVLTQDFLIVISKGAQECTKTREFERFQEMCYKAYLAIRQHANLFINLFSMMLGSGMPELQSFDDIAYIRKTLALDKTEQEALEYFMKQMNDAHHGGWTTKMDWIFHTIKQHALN
PIK3CA (p110α), sequence (P27986 whole entry partner, canonical isoform): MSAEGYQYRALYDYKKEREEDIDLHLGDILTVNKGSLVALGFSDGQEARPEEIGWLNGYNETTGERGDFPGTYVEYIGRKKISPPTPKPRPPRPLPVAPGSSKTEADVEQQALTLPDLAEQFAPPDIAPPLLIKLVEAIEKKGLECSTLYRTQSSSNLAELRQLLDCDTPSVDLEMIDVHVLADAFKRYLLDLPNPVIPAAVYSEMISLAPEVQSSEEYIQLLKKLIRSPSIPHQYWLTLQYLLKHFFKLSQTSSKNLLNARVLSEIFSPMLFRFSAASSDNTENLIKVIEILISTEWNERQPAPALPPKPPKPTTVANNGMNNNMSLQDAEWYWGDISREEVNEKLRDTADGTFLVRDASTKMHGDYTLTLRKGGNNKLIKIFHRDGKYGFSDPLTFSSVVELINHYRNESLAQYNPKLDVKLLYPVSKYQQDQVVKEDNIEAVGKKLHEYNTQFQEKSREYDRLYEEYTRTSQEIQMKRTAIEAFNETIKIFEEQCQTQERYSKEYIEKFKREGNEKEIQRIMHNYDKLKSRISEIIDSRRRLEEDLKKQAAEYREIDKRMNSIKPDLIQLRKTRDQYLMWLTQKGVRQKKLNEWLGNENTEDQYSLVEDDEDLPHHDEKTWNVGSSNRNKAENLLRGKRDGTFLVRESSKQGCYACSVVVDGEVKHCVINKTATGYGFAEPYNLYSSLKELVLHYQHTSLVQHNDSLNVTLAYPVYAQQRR
Source text: PX-866 is an pan-isoform inhibitor of Class I P1-3K that covalently binds to ATP binding site of the p110 catalytic subunit.

C=CCN(/C=C1/C(=O)O[C@H](COC)[C@@]2(C)C1=C(O)C(=O)C1=C2[C@H](OC(C)=O)C[C@]2(C)C(=O)CC[C@@H]12)CC=C [PX-866, Acetic acid 4-diallylaminomethylene-6-hydroxy-1-α-methoxymethyl-10β,13β-dimethyl-3,7,17-trioxo-1,3,4,7,10,11β,12,13,14α,15,16,17-dodecahydro-2-oxa-cyclopenta[α]phenanthren-11-yl ester]
Maximal Tolerated Dose (MTD) ([1]; continuous daily dosing): 8 mg per day
ALT/AST ([1]; continuous dosing): ALT/AST elevation was observed
Most common adverse events ([1]; continuous dosing): diarrhea, nausea, vomiting, headache and fatigue
Related Grade 3 events ([1]; continuous dosing section): vomiting (n=3), diarrhea (n=3), liver enzyme elevation (n=2) dehydration (n=1), worsened hypertension (n=1)
Dose limiting toxicity (DLT), patients affected ([1]; continuous dosing, 10 mg per day, Grade 3 diarrhea (n=2)): 2/3
Most common adverse events ([1]; intermittent dosing): diarrhea, nausea, vomiting, and constipation
Related Grade 3 events ([1]; intermittent dosing): vomiting (n=3), diarrhea (n=3), liver enzyme elevation (n=2) dehydration (n=1), and worsened hypertension (n=1)
Dose limiting toxicity (DLT), patients affected ([1]; intermittent dosing, 16 mg per day, Grade 3 diarrhea (n=1), Grade 3 AST (n=1)): 2/5
Maximal Tolerated Dose (MTD) ([1]; intermittent dosing, days 1-5 and 8-12 of a 28-day cycle): 12 mg per day
toxicity in patients receiving >2 cycles ([1]; printed in the continuous dosing section but worded intermittent dosing schedule): No significant increase in toxicity
effect on disease in prior treated patients [2]: stabilized disease
plasma level of parent PX-866 ([3]; after oral PX-866, with rare exceptions): below the limits of detection
effect on the PI-3K pathway (p-mTOR, p-S6) [4]: inhibition of the PI-3K pathway
decrease in p-AKT/T-AKT [5]: ≥ 60%

C=CCN(C=C1C(=O)OC(COC)C2(C)C1=C(O)C(=O)C1=C2C(OC(C)=O)CC2(C)C(O)CCC12)CC=C (stereo not shown) [17-OH PX-866]
increase in potency versus the parent PX-866 [6]: 2-5 fold
AUC in humans compared with mice ([3]; due to an increase in mean residence time in humans): exceeded AUC in mice
